Patent US6492397B1, “N-arylheteroarylalkyl imidazol-2-one compounds for treatment of arteriosclerosis” (Pharmacia Corporation, priority 1991, dated 2002)
Read-outs that look alike come from different tables or passages of the source.

Columns and labels:
[1] = target: smooth muscle angiotensin II receptor; assay: Assay A: Angiotensin II Binding Activity (125I-angiotensin II displacement, rat uterine membrane preparation); conditions: 50% displacement of specifically bound 125I-AII, rat uterine membranes, 25° C., 60 min
Experimental: Assay A: Angiotensin II Binding Activity
Compounds of the invention were tested for ability to bind to the smooth muscle angiotensin II receptor using a rat uterine membrane preparation. […] Other chemicals were obtained from Sigma Chemical Co. This assay was carried out according to the method of Douglas et al [Endocrinology, 106, 120-124 (1980)]. Rat uterine membranes were prepared from fresh tissue. All procedures were carried out at 4° C. Uteri were stripped of fat and homogenized in phosphate-buffered saline at pH 7.4 containing 5 mM EDTA. The homogenate was centrifuged at 1500×g for 20 min., and the supernatant was recentrifuged at 100,000×g for 60 min. The pellet was resuspended in buffer consisting of 2 mM EDTA and 50 mM Tris-HCl (pH 7.5) to a final protein concentration of 4 mg/ml. Assay tubes were charged with 0.25 ml of a solution containing 5 mM MgCl2, 2 mM EDTA, 0.5% bovine serum albumin, 50 mM Tris-HCl, pH 7.5 and […] (approximately 10^5 cpm) in the absence or in the presence of unlabelled ligand. The reaction was initiated by the addition of membrane protein and the mixture was incubated at 25° C. for 60 min. The incubation was terminated with ice-cold 50 mM Tris-HCl (pH 7.5) and the mixture was filtered to separate membrane-bound labelled peptide from the free ligand. The incubation tube and filter were washed with ice-cold buffer. Filters were assayed for radioactivity in a Micromedic gamma counter. Nonspecific binding was defined as binding in the presence of 10 μM of unlabelled AII. Specific binding was calculated as total binding minus nonspecific binding. […] Binding data were analyzed by a nonlinear least-squares curve fitting program.

rabbit aortic rings = assay: Assay B: In Vitro Vascular Smooth Muscle Response for AII (antagonist activity in rabbit aortic rings); assay type: cell-based; conditions: Oryctolagus cuniculus, test antagonist at 10^-5 M, AII contraction, read-out: Assay B pA2 (converted)
Experimental: Assay B: In Vitro Vascular Smooth Muscle-Response for AII
The compounds of the invention were tested for antagonist activity in rabbit aortic rings. Male New Zealand white rabbits (2-2.5 kg) were sacrificed using an overdose of pentobarbital and exsanguinated via the carotid arteries. The thoracic aorta was removed, cleaned of adherent fat and connective tissue and then cut into 3-mm ring segments. The endothelium was removed from the rings by gently sliding a rolled-up piece of filter paper into the vessel lumen. The rings were then mounted in a water-jacketed tissue bath, maintained at 37° C., between moveable and fixed ends of a stainless steel wire with the moveable end attached to an FT03 Grass transducer coupled to a Model 7D Grass Polygraph for recording isometric force responses. The bath was filled with 20 ml of oxygenated (95% oxygen/5% carbon dioxide) Krebs solution of the following composition (mM): 130 NaCl, 15 NaHCO3, […], 1.2 NaH2PO4, 1.2 MgSO4, 2.5 CaCl2, and 11.4 glucose. The preparations were equilibrated for one hour before approximately one gram of passive tension was placed on the rings. Angiotensin II concentration-response curves were then recorded (3×10^−10 to 1×10^−5 M). Each concentration of AII was allowed to elicit its maximal contraction, and then AII was washed out repeatedly for 30 minutes before rechallenging with a higher concentration of AII. Aorta rings were exposed to the test antagonist at 10^−5 M for 5 minutes before challenging with AII. Adjacent segments of the same aorta ring were used for all concentration-response curves in the presence or absence of the test antagonist. The effectiveness of the test compound was expressed in terms of pA2 values and were calculated according to H. O. Schild [Br. J. Pharmacol. Chemother., 2,189-206 (1947)]. The PA2 value is the concentration of the antagonist which increases the EC50 value for AII by a factor of two. Each test antagonist was evaluated in aorta rings from two rabbits.

pressor response to AII = assay: Assay C: In Vivo Intragastric Pressor Assay Response for AII Antagonists; design: species or system rat; conditions: for Assay C Duration: Dose: 3 mg/kg (i.g.), Sprague-Dawley rats, AII challenges up to 180 minutes after gavage; for inhibition in vivo at 3 mg/kg: Rattus norvegicus, po
Experimental: Assay C: In Vivo Intragastric Pressor Assay Response for AII Antagonists
Male Sprague-Dawley rats weighing 225-300 grams were anesthetized with methohexital (30 mg/kg, i.p.) and catheters were implanted into the femoral artery and vein. The catheters were tunneled subcutaneously to exit dorsally, posterior to the head and between the scapulae. The catheters were filled with heparin (1000 units/ml of saline). The rats were returned to their cage and allowed regular rat chow and water ad libitum. After full recovery from surgery (3-4 days), rats were placed in Lucite holders and the arterial line was connected to a pressure transducer. Arterial pressure was recorded on a Gould polygraph (mmHg). Angiotensin II was administered as a 30 ng/kg bolus via the venous catheter delivered in a 50 μl volume with a 0.2 ml saline flush. The pressor response in mm Hg was measured by the difference from pre-injection arterial pressure to the maximum pressure achieved. The AII injection was repeated every 10 minutes until three consecutive injections yielded responses within 4 mmHg of each other. These three responses were then averaged and represented the control response to AII. The test compound was suspended in 0.5% methylcellulose in water and was administered by gavage. The volume administered was 2 ml/kg body weight. The standard dose was 3 mg/kg. Angiotensin II bolus injections were given at 30, 45, 60, 75, 120, 150, and 180 minutes after gavage. The pressor response to AII was measured at each time point. The rats were then returned to their cage for future testing. A minimum of 3 days was allowed between tests. Percent inhibition was calculated for each time point following gavage by the following formula: [(Control Response−Response at time point)/Control Response]×100.

[2] = first value of the pair (aorta rings from two rabbits)
[3] = second value of the pair (aorta rings from two rabbits)

| SMILES | IC50 [1] | Kb (rabbit aortic rings; [2]) | Kb (rabbit aortic rings; [3]) | Assay C Duration (pressor response to AII) | inhibition in vivo at 3 mg/kg (pressor response to AII) |
| --- | --- | --- | --- | --- | --- |
| CCCc1cn(CCC)c(=O)n1Cc1ccc(-c2ccccc2-c2nnn[nH]2)nc1 [Example 2, 1,4-dipropyl-1,3-dihydro-3-[[6-[2-(1H-tetrazol-5-yl)phenyl]-3-pyridinyl]methyl]-2H-imidazol-2-one] | 38 nM | 7.41 nM | 39.8 nM | 180 min | 25% |
| CCCn1cc(CC(C)C)n(Cc2ccc(-c3ccccc3-c3nnn[nH]3)nc2)c1=O [Example 3, 1-propyl-4-isobutyl-1,3-dihydro-3-[[6-[2-(1H-tetrazol-5-yl)phenyl]-3-pyridinyl]methyl]-2H-imidazol-2-one] | 770 nM | 34.7 nM | 112 nM | – | – |
| CCCCn1cc(CC(C)C)n(Cc2ccc(-c3ccccc3-c3nnn[nH]3)nc2)c1=O [Example 4, 1-butyl-4-isobutyl-1,3-dihydro-3-[[6-[2-(1H-tetrazol-5-yl)phenyl]-3-pyridinyl]methyl]-2H-imidazol-2-one] | 140 nM | 19.1 nM | 81.3 nM | – | – |
| CCCCn1cc(CCC(C)C)n(Cc2ccc(-c3ccccc3-c3nnn[nH]3)nc2)c1=O [Example 5, 1-butyl-4-isopentyl-1,3-dihydro-3-[[6-[2-(1H-tetrazol-5-yl)phenyl]-3-pyridinyl]methyl]-2H-imidazol-2-one] | 29 nM | 2.29 nM | 5.89 nM | – | – |
| CCCCn1cc(C2CCCCC2)n(Cc2ccc(-c3ccccc3-c3nnn[nH]3)nc2)c1=O [Example 7, 1-butyl-4-cyclohexyl-1,3-dihydro-3-[[6-[2-(1H-tetrazol-5-yl)phenyl]-3-pyridinyl]methyl]-2H-imidazol-2-one] | 81 nM | 17.8 nM | 17.4 nM | 180 min | 10% |
| CCCCn1cc(CCC2CC2)n(Cc2ccc(-c3ccccc3-c3nnn[nH]3)nc2)c1=O [Example 9, 1-butyl-4-(2-cyclopropylethyl)-1,3-dihydro-3-[[6-[2-(1H-tetrazol-5-yl)phenyl]-3-pyridinyl]methyl]-2H-imidazol-2-one] | 11 nM | 0.537 nM | 1.35 nM | 180 min | 10% |
| CCCCc1cn(C(C)C)c(=O)n1Cc1ccc(-c2ccccc2-c2nnn[nH]2)nc1 [Example 16, 1-isopropyl-4-butyl-1,3-dihydro-3-[[6-[2-(1H-tetrazol-5-yl)phenyl]-3-pyridinyl]methyl]-2H-imidazol-2-one] | 20 nM | 3.8 nM | 1.7 nM | >180 min | 45% |
| CCCCc1cn(C(C)(C)C)c(=O)n1Cc1ccc(-c2ccccc2-c2nnn[nH]2)nc1 [Example 17, 1-tertbutyl-4-butyl-1,3-dihydro-3-[[6-[2-(1H-tetrazol-5-yl)phenyl]-3-pyridinyl]methyl]-2H-imidazol-2-one] | 17 nM | 1.66 nM | 2.34 nM | 180 min | 10% |
| CCCCc1cn(CCC(C)(C)C)c(=O)n1Cc1ccc(-c2ccccc2-c2nnn[nH]2)nc1 [Example 19, 1-(3,3-dimethylbutyl)-4-butyl-1,3-dihydro-3-[[6-[2-(1H-tetrazol-5-yl)phenyl]-3-pyridinyl]methyl]-2H-imidazol-2-one] | 9.2 nM | 3.72 nM | 4.37 nM | >180 min | 50% |
| CCCCc1cn(C2CCCC2)c(=O)n1Cc1ccc(-c2ccccc2-c2nnn[nH]2)nc1 [Example 23, 1-cyclopentyl-4-butyl-1,3-dihydro-3-[[6-[2-(1H-tetrazol-5-yl)phenyl]-3-pyridinyl]methyl]-2H-imidazol-2-one] | 99 nM | 0.912 nM | 2.51 nM | – | – |
| CCCCc1cn(CCc2ccccc2)c(=O)n1Cc1ccc(-c2ccccc2-c2nnn[nH]2)nc1 [Example 26, 1-(2-phenylethyl)-4-butyl-1,3-dihydro-3-[[6-[2-(1H-tetrazol-5-yl)phenyl]-3-pyridinyl]methyl]-2H-imidazol-2-one] | 3.6 nM | 4.37 nM | 3.63 nM | 180 min | 15% |
| CCCCc1cn(C2C3CC4CC(C3)CC2C4)c(=O)n1Cc1ccc(-c2ccccc2-c2nnn[nH]2)nc1 (centres unmarked) [Example 29, 1-(2-adamantyl)-4-butyl-1,3-dihydro-3-[[6-[2-(1H-tetrazol-5-yl)phenyl]-3-pyridinyl]methyl]-2H-imidazol-2-one] | 51 nM | – | – | – | – |
| CCCCc1cn(C23CC4CC(CC(C4)C2)C3)c(=O)n1Cc1ccc(-c2ccccc2-c2nnn[nH]2)nc1 [Example 30, 1-(1-adamantyl)-4-butyl-1,3-dihydro-3-[[6-[2-(1H-tetrazol-5-yl)phenyl]-3-pyridinyl]methyl]-2H-imidazol-2-one] | 65 nM | – | – | – | – |
| CCCCc1cn(-c2ccccc2)c(=O)n1Cc1ccc(-c2ccccc2-c2nnn[nH]2)nc1 [Example 31, 1-phenyl-4-butyl-1,3-dihydro-3-[[6-[2-(1H-tetrazol-5-yl)phenyl]-3-pyridinyl]methyl]-2H-imidazol-2-one] | 45 nM | – | – | – | – |
| CCCCc1cn(-c2ccccc2C)c(=O)n1Cc1ccc(-c2ccccc2-c2nnn[nH]2)nc1 [Example 33, 1-(2-methylphenyl)-4-butyl-1,3-dihydro-3-[[6-[2-(1H-tetrazol-5-yl)phenyl]-3-pyridinyl]methyl]-2H-imidazol-2-one] | 9.4 nM | – | – | >180 min | 65% |
| CCCCc1cn(-c2ccccc2OC)c(=O)n1Cc1ccc(-c2ccccc2-c2nnn[nH]2)nc1 [Example 34, 1-(2-methoxyphenyl)-4-butyl-1,3-dihydro-3-[[6-[2-(1H-tetrazol-5-yl)phenyl]-3-pyridinyl]methyl]-2H-imidazol-2-one] | 9 nM | – | – | – | – |
| CCCCc1cn(-c2ccccc2C(C)C)c(=O)n1Cc1ccc(-c2ccccc2-c2nnn[nH]2)nc1 [Example 35, 1-(2-isopropylphenyl)-4-butyl-1,3-dihydro-3-[[6-[2-(1H-tetrazol-5-yl)phenyl]-3-pyridinyl]methyl]-2H-imidazol-2-one] | 14 nM | – | – | – | – |
| CCCCc1cn(-c2c(C)cccc2C)c(=O)n1Cc1ccc(-c2ccccc2-c2nnn[nH]2)nc1 [Example 38, 1-(2,6-dimethylphenyl)-4-butyl-1,3-dihydro-3-[[6-[2-(1H-tetrazol-5-yl)phenyl]-3-pyridinyl]methyl]-2H-imidazol-2-one] | 5 nM | – | – | – | – |
